In US20240059671A1, “TYROSINE KINASE 2 (TYK2) DEGRADATION COMPOUNDS AND METHODS OF USE” (CULLGEN (SHANGHAI), INC., priority 2020, published 2024):

Target: TYK2 (Homo sapiens, UniProt P29597)
Assay: TYK2 protein degradation in NOMO-1 cells by immunoblotting
Type: cell-based
Set-up: endogenous in cells
Conditions: NOMO-1 cells
Experimental: NOMO-1 cells were treated with CPD-155, CPD-157, and CPD-158 at 0.1, 1, 10, 100 and 1000 nM concentrations for 16 hours. […] Data shown that CPD-155, CPD-157, and CPD-158 are very potent at the reduction protein levels of TYK2.
MOLT-4 or NOMO-1 cells were cultured at 37° C. with 5% CO2 in RPMI 1640 Medium supplemented with 10% fetal bovine serum. Cells were authenticated using the short tandem repeat (STR) assays. Mycoplasma test results were negative.
Cultured cells were washed with cold PBS once and lysed in cold RIPA buffer supplemented with protease inhibitors and phosphatase inhibitors (Beyotime Biotechnology). The solutions were then incubated at 4° C. for 30 minutes with gentle agitation to fully lyse cells. Cell lysates were centrifuged at 13,000 rpm for 10 minutes at 4° C. and pellets were discarded. Total protein concentrations in the lysates were determined by BCA assays (Beyotime Biotechnology). Cell lysates were mixed with Laemmli loading buffer to 1× and heated at 99° C. for 5 min. Proteins were resolved on SDS-PAGE and visualized by chemiluminescence. Images were taken by a ChemiDoc MP Imaging system (Bio-Rad). Protein bands were quantitated using the accompanied software provided by Bio-Rad.

TYK2, sequence (P29597 whole entry): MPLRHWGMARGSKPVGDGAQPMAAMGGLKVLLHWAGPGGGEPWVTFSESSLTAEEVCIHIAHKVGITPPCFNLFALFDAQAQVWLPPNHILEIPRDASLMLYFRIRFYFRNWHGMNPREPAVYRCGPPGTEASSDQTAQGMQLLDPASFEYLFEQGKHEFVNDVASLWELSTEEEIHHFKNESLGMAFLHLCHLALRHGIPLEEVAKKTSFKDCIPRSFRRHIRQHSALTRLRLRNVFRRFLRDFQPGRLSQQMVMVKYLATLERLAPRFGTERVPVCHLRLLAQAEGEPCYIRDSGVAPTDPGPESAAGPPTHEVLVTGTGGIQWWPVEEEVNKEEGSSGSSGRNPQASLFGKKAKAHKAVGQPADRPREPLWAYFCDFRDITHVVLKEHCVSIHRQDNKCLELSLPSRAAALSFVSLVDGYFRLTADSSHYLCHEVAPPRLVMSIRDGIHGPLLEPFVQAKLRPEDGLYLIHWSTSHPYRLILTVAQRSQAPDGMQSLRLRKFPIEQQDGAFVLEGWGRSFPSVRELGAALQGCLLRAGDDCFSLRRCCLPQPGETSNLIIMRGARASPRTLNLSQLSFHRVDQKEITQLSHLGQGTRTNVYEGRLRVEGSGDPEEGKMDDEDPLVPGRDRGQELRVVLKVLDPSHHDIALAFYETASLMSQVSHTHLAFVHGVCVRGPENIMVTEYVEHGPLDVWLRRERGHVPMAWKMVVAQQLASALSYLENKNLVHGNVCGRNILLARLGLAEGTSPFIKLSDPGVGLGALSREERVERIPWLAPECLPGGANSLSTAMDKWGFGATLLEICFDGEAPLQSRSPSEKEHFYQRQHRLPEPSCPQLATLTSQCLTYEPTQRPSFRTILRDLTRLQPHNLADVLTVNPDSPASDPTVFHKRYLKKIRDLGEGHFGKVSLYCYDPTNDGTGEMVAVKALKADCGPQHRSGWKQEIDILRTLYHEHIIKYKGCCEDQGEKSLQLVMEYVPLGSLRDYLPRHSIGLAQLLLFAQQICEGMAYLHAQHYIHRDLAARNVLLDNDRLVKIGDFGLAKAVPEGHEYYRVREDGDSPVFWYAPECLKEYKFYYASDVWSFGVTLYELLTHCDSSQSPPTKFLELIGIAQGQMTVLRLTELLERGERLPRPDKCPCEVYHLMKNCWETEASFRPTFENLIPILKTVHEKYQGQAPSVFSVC

SMILES | TYK2 Degradation (NOMO-1, 10 nM) | TYK2 Degradation (NOMO-1, 100 nM)
CNC(=O)c1nnc(Nc2ccc(C(=O)NCCCCCCNc3ccc4c(c3)C(=O)N(C3CCC(=O)NC3=O)C4=O)cn2)cc1Nc1cccc(-c2ncn(C)n2)c1OC (stereo not drawn) [CPD-165, 6-((5-((6-((2-(2,6-dioxopiperidin-3-yl)-1,3-dioxoisoindolin-5-yl)amino)hexyl)carbamoyl)pyridin-2-yl)amino)-4-((2-methoxy-3-(1-methyl-1H-1,2,4-triazol-3-yl)phenyl)amino)-N-methylpyridazine-3-carboxamide] | C (C: ≤20% TYK2 degradation) | C (C: ≤20% TYK2 degradation)
CNC(=O)c1nnc(Nc2ccc(C(=O)NCCCCCCCCC(=O)N[C@H](C(=O)N3C[C@H](O)C[C@H]3C(=O)N[C@@H](C)c3ccc(-c4scnc4C)cc3)C(C)(C)C)cn2)cc1Nc1cccc(-c2ncn(C)n2)c1OC [CPD-144, 6-((5-((9-(((S)-1-((2S,4R)-4-hydroxy-2-(((S)-1-(4-(4-methylthiazol-5-yl)phenyl)ethyl)carbamoyl)pyrrolidin-1-yl)-3,3-dimethyl-1-oxobutan-2-yl)amino)-9-oxononyl)carbamoyl)pyridin-2-yl)amino)-4-((2-methoxy-3-(1-methyl-1H-1,2,4-triazol-3-yl)phenyl)amino)-N-methylpyridazine-3-carboxamide] | A (A: ≥60% TYK2 degradation) | A (A: ≥60% TYK2 degradation)
CNC(=O)c1nnc(Nc2ccc(N3CCN(C(=O)CCCCCCCCC(=O)N[C@H](C(=O)N4C[C@H](O)C[C@H]4C(=O)N[C@@H](C)c4ccc(-c5scnc5C)cc4)C(C)(C)C)CC3)cn2)cc1Nc1cccc(-c2ncn(C)n2)c1OC [CPD-114, 6-((5-(4-(10-(((S)-1-((2S,4R)-4-hydroxy-2-(((S)-1-(4-(4-methylthiazol-5-yl)phenyl)ethyl)carbamoyl)pyrrolidin-1-yl)-3,3-dimethyl-1-oxobutan-2-yl)amino)-10-oxodecanoyl)piperazin-1-yl)pyridin-2-yl)amino)-4-((2-methoxy-3-(1-methyl-1H-1,2,4-triazol-3-yl)phenyl)amino)-N-methylpyridazine-3-carboxamide] | A (A: ≥60% TYK2 degradation) | A (A: ≥60% TYK2 degradation)
CNC(=O)c1nnc(Nc2ccc(C(=O)NCCCCCCCCNc3ccc4c(c3)C(=O)N(C3CCC(=O)NC3=O)C4=O)cn2)cc1Nc1cccc(-c2ncn(C)n2)c1OC (stereo not drawn) [CPD-167, 6-((5-((8-((2-(2,6-dioxopiperidin-3-yl)-1,3-dioxoisoindolin-5-yl)amino)octyl)carbamoyl)pyridin-2-yl)amino)-4-((2-methoxy-3-(1-methyl-1H-1,2,4-triazol-3-yl)phenyl)amino)-N-methylpyridazine-3-carboxamide] | A (A: ≥60% TYK2 degradation) | C (C: ≤20% TYK2 degradation)
CNC(=O)c1nnc(Nc2ccc(N3CCN(C(=O)CCCCCCC(=O)N[C@H](C(=O)N4C[C@H](O)C[C@H]4C(=O)N[C@@H](C)c4ccccc4)C(C)(C)C)CC3)cn2)cc1Nc1cccc(-c2ncn(C)n2)c1OC [CDD-169, 6-((5-(4-(8-(((S)-1-((2S,4R)-4-hydroxy-2-(((S)-1-phenylethyl)carbamoyl)pyrrolidin-1-yl)-3,3-dimethyl-1-oxobutan-2-yl)amino)-8-oxooctanoyl)piperazin-1-yl)pyridin-2-yl)amino)-4-((2-methoxy-3-(1-methyl-1H-1,2,4-triazol-3-yl)phenyl)amino)-N-methylpyridazine-3-carboxamide] | C (C: ≤20% TYK2 degradation) | C (C: ≤20% TYK2 degradation)
CNC(=O)c1nnc(Nc2ccc(C(=O)NCCCNc3cccc4c3C(=O)N(C3CCC(=O)NC3=O)C4=O)cn2)cc1Nc1cccc(-c2ncn(C)n2)c1OC (stereo not drawn) [CPD-153, 6-((5-((3-((2-(2,6-Dioxopiperidin-3-yl)-1,3-dioxoisoindolin-4-yl)amino)propyl)carbamoyl)pyridin-2-yl)amino)-4-((2-methoxy-3-(1-methyl-1H-1,2,4-triazol-3-yl)phenyl)amino)-N-methylpyridazine-3-carboxamide] | – | C (C: ≤20% TYK2 degradation)
CNC(=O)c1nnc(Nc2ccc(CNC(=O)CCC(=O)N[C@H](C(=O)N3C[C@H](O)C[C@H]3C(=O)N[C@@H](C)c3ccc(-c4scnc4C)cc3)C(C)(C)C)cn2)cc1Nc1cccc(-c2ncn(C)n2)c1OC [CPD-128, N1-((S)-1-((2S,4R)-4-Hydroxy-2-(((S)-1-(4-(4-methylthiazol-5-yl)phenyl)ethyl)carbamoyl)pyrrolidin-1-yl)-3,3-dimethyl-1-oxobutan-2-yl)-N4-((6-((5-((2-methoxy-3-(1-methyl-1H-1,2,4-triazol-3-yl)phenyl)amino)-6-(methylcarbamoyl)pyridazin-3-yl)amino)pyridin-3-yl)methyl)succinamide] | – | C (C: ≤20% TYK2 degradation)
CNC(=O)c1nnc(Nc2ccc(N3CCN(C4CCN(C(=O)CCCCCC(=O)N[C@H](C(=O)N5C[C@H](O)C[C@H]5C(=O)N[C@@H](C)c5ccc(-c6scnc6C)cc5)C(C)(C)C)CC4)CC3)cn2)cc1Nc1cccc(-c2ncn(C)n2)c1OC [CPD-148, 6-((5-(4-(1-(7-(((S)-1-((2S,4R)-4-hydroxy-2-(((S)-1-(4-(4-methylthiazol-5-yl)phenyl)ethyl)carbamoyl)pyrrolidin-1-yl)-3,3-dimethyl-1-oxobutan-2-yl)amino)-7-oxoheptanoyl)piperidin-4-yl)piperazin-1-yl)pyridin-2-yl)amino)-4-((2-methoxy-3-(1-methyl-1H-1,2,4-triazol-3-yl)phenyl)amino)-N-methylpyridazine-3-carboxamide] | A (A: ≥60% TYK2 degradation) | A (A: ≥60% TYK2 degradation)
CNC(=O)c1nnc(Nc2ccc(N3CCN(C(=O)CCCCCCC(=O)N[C@H](C(=O)N4C[C@H](O)C[C@H]4C(=O)N[C@@H](C)c4ccc(-c5scnc5C)cc4)C(C)(C)C)CC3)cn2)cc1Nc1cccc(-c2ncn(C)n2)c1OC [CDP-112, 6-((5-(4-(8-(((S)-1-((2S,4R)-4-Hydroxy-2-(((S)-1-(4-(4-methylthiazol-5-yl)phenyl)ethyl)carbamoyl)pyrrolidin-1-yl)-3,3-dimethyl-1-oxobutan-2-yl)amino)-8-oxooctanoyl)piperazin-1-yl)pyridin-2-yl)amino)-4-((2-methoxy-3-(1-methyl-1H-1,2,4-triazol-3-yl)phenyl)amino)-N-methylpyridazine-3-carboxamide] | A (A: ≥60% TYK2 degradation) | A (A: ≥60% TYK2 degradation)
CNC(=O)c1nnc(Nc2ccc(C#CC3CCN(C(=O)CCCCCC(=O)N[C@H](C(=O)N4C[C@H](O)C[C@H]4C(=O)N[C@@H](C)c4ccc(-c5scnc5C)cc4)C(C)(C)C)CC3)cn2)cc1Nc1cccc(-c2ncn(C)n2)c1OC [CPD-118, 6-((5-((1-(7-(((S)-1-((2S,4R)-4-Hydroxy-2-(((S)-1-(4-(4-methylthiazol-5-yl)phenyl)ethyl)carbamoyl)pyrrolidin-1-yl)-3,3-dimethyl-1-oxobutan-2-yl)amino)-7-oxoheptanoyl)piperidin-4-yl)ethynyl)pyridin-2-yl)amino)-4-((2-methoxy-3-(1-methyl-1H-1,2,4-triazol-3-yl)phenyl)amino)-N-methylpyridazine-3-carboxamide] | B (B: <60% TYK2 degradation, and >20% TYK2 degradation) | A (A: ≥60% TYK2 degradation)
CNC(=O)c1nnc(Nc2ccc(N3CCN(C(=O)CCCCCCC(=O)N[C@H](C(=O)N4C[C@H](O)C[C@H]4C(=O)N[C@H]4CCCc5c4cc(C#N)n5C)C(C)(C)C)CC3)cn2)cc1Nc1cccc(-c2ncn(C)n2)c1OC [CDD-173, 6-((5-(4-(8-(((S)-1-((2S,4R)-2-(((S)-2-cyano-1-methyl-4,5,6,7-tetrahydro-1H-indol-4-yl)carbamoyl)-4-hydroxypyrrolidin-1-yl)-3,3-dimethyl-1-oxobutan-2-yl)amino)-8-oxooctanoyl)piperazin-1-yl)pyridin-2-yl)amino)-4-((2-methoxy-3-(1-methyl-1H-1,2,4-triazol-3-yl)phenyl)amino)-N-methylpyridazine-3-carboxamide] | C (C: ≤20% TYK2 degradation) | C (C: ≤20% TYK2 degradation)
CNC(=O)c1nnc(Nc2ccc(C#CC3CCN(C(=O)CCCCCCC(=O)N[C@H](C(=O)N4C[C@H](O)C[C@H]4C(=O)N[C@@H](C)c4ccc(-c5scnc5C)cc4)C(C)(C)C)CC3)cn2)cc1Nc1cccc(-c2ncn(C)n2)c1OC [CPD-119, 6-((5-((1-(8-(((S)-1-((2S,4R)-4-Hydroxy-2-(((S)-1-(4-(4-methylthiazol-5-yl)phenyl)ethyl)carbamoyl)pyrrolidin-1-yl)-3,3-dimethyl-1-oxobutan-2-yl)amino)-8-oxooctanoyl)piperidin-4-yl)ethynyl)pyridin-2-yl)amino)-4-((2-methoxy-3-(1-methyl-1H-1,2,4-triazol-3-yl)phenyl)amino)-N-methylpyridazine-3-carboxamide] | – | A (A: ≥60% TYK2 degradation)
